# Test results published in patent publication US5096715A, “Method and means for treating alcoholism by extinguishing the alcohol-drinking response using a transdermally administered opiate antagonist” (Alko Ltd., priority 1989, dated 1992).
# “Also recorded” adds a separate entry of the source.
# Experiments:
# [1] = human
# [2] = several combinations of vehicles and enhancers; cited from earlier work
# [3] = cited from earlier work
# [4] = humans; cited from earlier work
Compound,"naloxone present to block alcohol reinforcement at end of session ([1]; 4-7 hrs later, transdermal)",systemic delivery rate ([1]; skin area of 900-1000 cm^2),time to deliver the entire 30 mg systemically ([1]; including lag time of 18 min),rates for naloxone [2],half-life in the body [3],severe side-effects [4]
C=CCN1CC[C@]23c4c5ccc(O)c4O[C@H]2C(=O)CC[C@@]3(O)[C@H]1C5 [naloxone],Sufficient quantities of naloxone to block alcohol reinforcement would still be present; also recorded: Sufficient amounts of naloxone to block alcohol reinforcement would still be present,about 5 mg/min,half an hour,over 300 μg/cm^2 /hr,desirably short half-life,–
O=C1CC[C@@]2(O)[C@H]3Cc4ccc(O)c5c4[C@@]2(CCN3CC2CC2)[C@H]1O5 [naltrexone],–,–,–,–,–,free of severe side-effects
